Test results as given in US20200046731A1, “BI[…] STATE (17- β)-HYDROXY-4-ANDROSTEN-3-ONE ESTERS” (Lipocine Inc., priority 2014, published 2020).

Assay: Serum testosterone responder analysis after oral dosing (Table 3)
Type: in vivo, human
Description: Some of the dosage forms of compositions described herein comprising or prepared from (17-β)-3-Oxoandrost-4-en-17-yl tridecanoate were administered to human subjects as a single dose of the esters to subjects. Serial blood samples were drawn at predetermined time (e.g., t=0, 12, 24, etc.) and analyzed for testosterone concentration using a validated HPLC-MS/MS analytical method. The Cmax, Cavg t1-t2, Tmax and AUCt1-t2 are calculated for testosterone in the serum of the subjects. Pharmacokinetic and statistical analyses are performed on the data obtained from the subjects. The pharmacokinetic parameters are defined as follows: • AUCt1-t2: The area under the serum concentration versus time curve, from time t1 (in hours) to time t2 (in hours) measurable concentration of the administered drug, as calculated by the linear trapezoidal method. […] This represents the average serum testosterone level over a period starting from time 0 (zero) hours to […] post-administration of dose. It should also be noted that Cavg t0-t24 is also referred to as simply “Cavg” in this invention. • Cavg t0-t12: The average serum concentration of testosterone obtained by dividing the AUCt0-t12 value by 12. This represents the average serum testosterone level over a period starting from time 0 (zero) hours to […] post-administration of dose. • Cavg t12-24: The average serum concentration of testosterone obtained by dividing the AUCt12-t24 value by 12. This represents the average serum testosterone level over the second half of the 24-hours post-administration of dose period; i.e., from a period starting from time 12 hours to time 24 hours post-administration of dose.

[1] = starting dose 100 (±50) mg T equivalent QD or BID
[2] = starting dose 300 (±50) mg T equivalent QD
[3] = starting dose 350 (±100) mg T equivalent BID
[4] = starting dose 1000 (±200) mg T equivalent QD or BID

Compound: CCCCCCCCCCCCC(=O)O[C@H]1CC[C@H]2[C@@H]3CCC4=CC(=O)CC[C@]4(C)[C@H]3CC[C@]12C [(17-β)-3-Oxoandrost-4-en-17-yl tridecanoate]
- % Responders with Cave t0-t24 (ng/dL) 300-1140 [1]: 50-65%
- % Responders with Cmax (ng/dL) 1800-2500 [1]: 0-5%
- % Responders with Cmax (ng/dL) >2500 [1]: 0-1%
- % Responders with Cmax (ng/dL) ≤1500 [1]: 100%
- % Responders with Cmax (ng/dL) 1800-2500 [2]: 0-5%
- % Responders with Cmax (ng/dL) >2500 [2]: 0-1%
- % Responders with Cmax (ng/dL) ≤1500 [2]: 100%
- % Responders with Cave t0-t24 (ng/dL) 300-1140 (starting dose 300 (±50) mg T equivalent QD, 12-20% EAPI formulation): 100%
- % Responders with Cave t0-t24 (ng/dL) 300-1140 [3]: 100%
- % Responders with Cmax (ng/dL) 1800-2500 [3]: 0-5%
- % Responders with Cmax (ng/dL) >2500 [3]: 0-1%
- % Responders with Cmax (ng/dL) ≤1500 [3]: 100%
- % Responders with Cave t0-t24 (ng/dL) 300-1140 [4]: 100%
- % Responders with Cmax (ng/dL) 1800-2500 [4]: 20-30%
- % Responders with Cmax (ng/dL) >2500 [4]: 60-80%
- % Responders with Cmax (ng/dL) ≤1500 [4]: 0%
